The target in the test is T1, SMO (Mus musculus, UniProt P56726).
T1 construct: endogenous in cells; host or cells: C3H10T1/2 (ATCC #CCL-226)
Kind of test: Smoothened (SMO)/Sonic Hedgehog (SHh) Transient Transcriptional Activation Assay (Gli-luciferase reporter in C3H10T1/2 cells). Format: cell-based, murine. The following applies: SHh 250 ng/ml, 20 hrs; for SMO % inhibition at 2 uM: 2 uM test compound. The method in brief:
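Luminescence (Dual-Glo) measured after 20 h co-exposure at 37 °C to 250 ng/ml human SHh and compound at 2 uM down to 2 nM final. Cells were C3H10T1/2 carrying a transfected murine 10× Gli response-element luciferase construct with pEGFP, starved 20 h in 0.5% calf serum beforehand.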
For orientation: Reporter assays use an easily measured gene product as a stand-in for the process of interest.

[1] abbreviates: C3H 10T1/2, 2 μM test compound, read-out: SMO CELL % INHIBITION @ 2 μM.

By inhibition is commonly meant the drop in the measured response relative to a control, in per cent.

Where a name gives a salt, the structure may show the parent alone. Read-outs that look alike come from different tables or passages of the source.

T1 sequence (P56726 33-793): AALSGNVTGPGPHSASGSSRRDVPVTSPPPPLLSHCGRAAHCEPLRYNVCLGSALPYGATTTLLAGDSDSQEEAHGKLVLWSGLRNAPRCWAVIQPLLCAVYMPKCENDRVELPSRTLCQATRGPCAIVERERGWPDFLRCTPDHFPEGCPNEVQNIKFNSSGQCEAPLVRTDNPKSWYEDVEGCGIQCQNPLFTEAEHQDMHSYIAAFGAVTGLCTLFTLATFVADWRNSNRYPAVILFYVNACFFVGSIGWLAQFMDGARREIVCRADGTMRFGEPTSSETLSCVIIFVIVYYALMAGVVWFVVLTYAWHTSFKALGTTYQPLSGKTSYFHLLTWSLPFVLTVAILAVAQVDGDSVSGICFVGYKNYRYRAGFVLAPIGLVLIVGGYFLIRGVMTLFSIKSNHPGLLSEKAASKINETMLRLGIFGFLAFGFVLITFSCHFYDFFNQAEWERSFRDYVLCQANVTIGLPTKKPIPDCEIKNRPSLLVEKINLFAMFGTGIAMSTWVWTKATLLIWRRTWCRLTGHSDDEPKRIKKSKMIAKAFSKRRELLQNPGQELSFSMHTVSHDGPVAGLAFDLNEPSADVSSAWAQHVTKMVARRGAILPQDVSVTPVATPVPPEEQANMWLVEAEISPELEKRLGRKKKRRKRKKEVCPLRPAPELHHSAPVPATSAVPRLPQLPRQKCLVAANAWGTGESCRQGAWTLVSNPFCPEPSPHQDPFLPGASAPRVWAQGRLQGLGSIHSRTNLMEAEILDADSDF

For the compound `Cn1c([C@H]2CCC[C@@H](NC(=O)c3ccc4c(c3)CNCC4)C2)nc2ccccc21` [Example 310, N-[(1R,3S)-3-(1-methyl-1H-benzimidazol-2-yl)cyclohexyl]-1,2,3,4-tetrahydroiso-quinoline-7-carboxamide HCl], under setting [1], the inhibition at 2 µM stood at 91.6%. For `Cn1c([C@H]2CCC[C@@H](NC(=O)c3ccc4c(c3)CCNC4)C2)nc2ccccc21` [Example 311, N-[(1R,3S)-3-(1-methyl-1H-benzimidazol-2-yl)cyclohexyl]-1,2,3,4-tetrahydroiso-quinoline-6-carboxamide HCl], the inhibition at 2 µM under setting [1] was 100%. For the compound `O=C(N[C@@H]1CCC[C@H](c2nc3ccccc3[nH]2)C1)c1ccc(Cl)nc1` [N-((1R,3S)-3-(1H-Benzo[d]imidazol-2-yl)cyclohexyl)-6-chloronicotinamide], the inhibition at 2 µM (C3H 10T1/2, 2 uM test compound, read-out: SMO % inhibition at 2 uM) was 103%. Take “N-(3-(1,5-Dimethyl-1H-benzo[d]imidazol-2-yl)cyclohexyl]-3,5-dimethoxybenzamide and N-(3-(1,6-dimethyl-1H-benzo[d]imidazol-2-yl)cyclohexyl]-3,5-dimethoxybenzamide [Example 22]”: the “SMO % inhibition at 2 uM” value is reported as 98%.

In the case of “N-(3-(1-Methyl-6-(morpholinomethyl)-1H-benzo[d]imidazol-2-yl]cyclohexyl)-2,3-dihydrobenzo[b][1,4]dioxine-6-carboxamide and N-(3-(1-Methyl-5-(morpholinomethyl)-1H-benzo[d]imidazol-2-yl]cyclohexyl)-2,3-dihydrobenzo[b][1,4]dioxine-6-carboxamide [Example 37]”, the “SMO % inhibition at 2 uM” value stood at 88%. Same read-out and setting: the same measure for “N-(3-(5-(Aminomethyl)-1-methyl-1H-benzo[d]imidazol-2-yl)cyclohexyl)-3,5-dimethoxybenzamide and N-(3-(6-(aminomethyl)-1-methyl-1H-benzo[d]imidazol-2-yl)cyclohexyl)-3,5-dimethoxybenzamide [Example 23]”: 104%; for “N-(3-(5-Bromo-1-methyl-1H-benzo[d]imidazol-2-yl)cyclohexyl)-3,5-dimethoxybenzamide and N-(3-(6-bromo-1-methyl-1H-benzo[d]imidazol-2-yl)cyclohexyl)-3,5-dimethoxybenzamide [Example 18]”: 107%; for “N-(3-(5-Cyano-1-methyl-1H-benzo[d]imidazol-2-yl)cyclohexyl]-2,3-dihydrobenzo[b][1,4]dioxine-6-carboxamide and N-(3-(6-Cyano-1-methyl-1H-benzo[d]imidazol-2-yl)cyclohexyl]-2,3-dihydrobenzo[b][1,4]dioxine-6-carboxamide [Example 20]”: 103%. In the case of “N-(3-(6-(2-Cyanopropan-2-yl)-1-methyl-1H-benzo[d]imidazol-2-yl)cyclohexyl)-2,3-dihydrobenzo[b)[1,4]dioxine-6-carboxamide and N-(3-(5-(2-cyanopropan-2-yl)-1-methyl-1H-benzo[d]imidazol-2-yl)cyclohexyl)-2,3-dihydrobenzo[b][1,4]dioxine-6-carboxamide [Example 36]”, the “SMO % inhibition at 2 uM” value is on record as 93%. For the compound “N-(3-(6-(2-Hydroxypropan-2-yl)-1-methyl-1H-benzo[d]imidazol-2-yl)cyclohexyl)-2,3-dihydrobenzo[b][1,4]dioxine-6-carboxamide and N-(3-(5-(2-Hydroxypropan-2-yl)-1-methyl-1H-benzo[d]imidazol-2-yl)cyclohexyl)-2,3-dihydrobenzo[b][1,4]dioxine-6-carboxamide [Example 31]”, the “SMO % inhibition at 2 uM” value is 97%. As for “N-(3-(6-((2-Methoxyethylamino)methyl)-1-methyl-1H-benzo[d]imidazol-2-yl)cyclohexyl)-2,3-dihydrobenzo[b][1,4]dioxine-6-carboxamide and N-(3-(5-((2-methoxyethylamino)methyl)-1-methyl-1H-benzo[d]imidazol-2-yl)cyclohexyl)-2,3-dihydrobenzo[b][1,4]dioxine-6-carboxamide [Example 38]”, the “SMO % inhibition at 2 uM” value worked out at 103%.

Consider “N-(3-(6-((Dimethylamino)methyl]-1-methyl-1H-benzo[d]imidazol-2-yl)cyclohexyl)-2,3-dihydrobenzo[b][1,4]dioxine-6-carboxamide and N-(3-(5-((Dimethylamino)methyl]-1-methyl-1H-benzo[d]imidazol-2-yl)cyclohexyl)-2,3-dihydrobenzo[b][1,4]dioxine-6-carboxamide [Example 34]”, for which the “SMO % inhibition at 2 uM” value is 96%. Same read-out and setting: the same measure for “N-(3-(6-(Cyanomethyl)-1-methyl-1H-benzo[d]imidazol-2-yl)cyclohexyl)-2,3-dihydrobenzo[b][1,4]dioxine-6-carboxamide and N-(3-(5-(Cyanomethyl)-1-methyl-1H-benzo[d]imidazol-2-yl)cyclohexyl)-2,3-dihydrobenzo[b][1,4]dioxine-6-carboxamide [Example 35]”: 106%. In the case of “N-(3-(6-(Hydroxymethyl)-1-methyl-1H-benzo[d]imidazol-2-yl)cyclohexyl)-2,3-dihydrobenzo[b][1,4]dioxine-6-carboxamide and N-(3-(5-(Hydroxymethyl)-1-methyl-1H-benzo[d]imidazol-2-yl)cyclohexyl)-2,3-dihydrobenzo[b][1,4]dioxine-6-carboxamide [Example 30]”, the “SMO % inhibition at 2 uM” value came to 104%. In the case of “N-(3-(6-(Methoxymethyl)-1-methyl-1H-benzo[d]imidazol-2-yl]cyclohexyl)-2,3-dihydrobenzo[b][1,4]dioxine-6-carboxamide and N-(3-(6-(Methoxymethyl)-1-methyl-1H-benzo[d]imidazol-2-yl]cyclohexyl)-2,3-dihydrobenzo[b][1,4]dioxine-6-carboxamide [Example 33]”, the “SMO % inhibition at 2 uM” value is listed as 102%. Take “N-(3-(6-Isopropyl-1-methyl-1H-benzo[d]imidazol-2-yl)cyclohexyl)-2,3-dihydrobenzo[b][1,4]dioxine-6-carboxamide and N-(3-(5-isopropyl-1-methyl-1H-benzo[d]imidazol-2-yl)cyclohexyl)-2,3-dihydrobenzo[b][1,4]dioxine-6-carboxamide [Example 32]”: the “SMO % inhibition at 2 uM” value came to 81%. As for “N-((1R,3R)-3-(1H-benzo[d]imidazol-2-yl)cyclohexyl)-3-oxo-3,4-dihydro-2H-benzo[b][1,4]oxazine-6-carboxamide and N-((1S,3S)-3-(1H-benzo[d]imidazol-2-yl)cyclohexyl)-3-oxo-3,4-dihydro-2H-benzo[b][1,4]oxazine-6-carboxamide [Example 48]”, the “SMO % inhibition at 2 uM” value is 80%. As to “N-((1R,3R)-3-(5-Methoxy-1H-benzo[d]imidazol-2-yl)cyclohexyl)-2,3-dihydrobenzo[b][1,4]dioxine-6-carboxamide and N-((1S,3S)-3-(5-methoxy-1H-benzo[d]imidazol-2-yl)cyclohexyl)-2,3-dihydrobenzo[b][1,4]dioxine-6-carboxamide [Example 49]”, the “SMO % inhibition at 2 uM” value was found to be 92%.

For “N-((1R,3S)-3-(1H-benzo[d]imidazol-2-yl)cyclohexyl]-2,3-dihydrobenzo[b][1,4]dioxine-6-carboxamide and N-((1S,3R)-3-(1H-benzo[d]imidazol-2-yl)cyclohexyl)-2,3-dihydrobenzo[b][1,4]dioxine-6-carboxamide [Example 2]”, the “SMO % inhibition at 2 uM” value amounted to 84%.

For the origin of these results see patent US20100029615A1, “BENZIMIDAZOLE DERIVATIVES” (priority 2006, published 2010).
